Laboratory results reported in patent US8304447B2, “2-acylaminopropoanol-type glucosylceramide synthase inhibitors” (Genzyme Corporation, priority 2007, dated 2012).
Values belong to the compound of their own block, whether it stands above or below them.

System: GM3
Test: GM3 Elisa assay
Format: cell-based
Settings: Table 3 (IC 50 Values); B16-FO cells; read-out: IC50_uM_Mean
Outline: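 Murine B16-FO melanoma cells attached 6 h on collagen, then exposed to compounds for 2 days at 37 °C. After formaldehyde fixation, cell-surface GM3 (NeuAc) was detected by anti-GM3 IgM and peroxidase anti-mouse IgM with Quantablu fluorescence (Ex 325/Em 420).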

SMILES: COc1ccc(C(=O)CCCC(=O)N[C@H](CN2CC[C@@H](F)C2)[C@H](O)c2ccc(OC(C)C)cc2)cc1 [Compound 444]
- IC50: 100 to 1000 nM

SMILES: COc1ccc(OCCCC(=O)N[C@H](CN2CC[C@@H](F)C2)[C@H](O)c2ccc(OC(C)C)cc2)cc1 [Compound 445]
- IC50: 100 to 1000 nM

SMILES: COc1ccc(OCCC(=O)N[C@H](CN2CC[C@H](O)C2)[C@H](O)c2ccc(OC(C)C)cc2)cc1 [Compound 447]
- IC50: ≤ 100 nM

SMILES: COCCOc1ccc(C(=O)CCCC(=O)N[C@H](CN2CCCC2)[C@H](O)c2ccc3c(c2)OCCO3)cc1 [Compound 449]
- IC50: ≤ 100 nM

SMILES: COc1ccc(OCCC(=O)N[C@H](CN2CC[C@@H](F)C2)[C@H](O)c2ccc(OC(C)C)cc2)cc1 [Compound 452]
- IC50: 100 to 1000 nM

SMILES: CCCCCCOc1ccc([C@@H](O)[C@@H](CN2CC[C@H](O)C2)NC(=O)CCOc2ccc(OC)cc2)cc1 [Compound 454]
- IC50: ≤ 100 nM

SMILES: COCCCCCCCC(=O)N[C@H](CN1CC[C@H](O)C1)[C@H](O)c1ccc(OC(C)C)cc1 [Compound 456]
- IC50: ≤ 100 nM

SMILES: COc1ccc(C(=O)CCCCCC(=O)N[C@H](CNC2CCCCC2)[C@H](O)c2ccc3c(c2)OCCO3)cc1 [Compound 458]
- IC50: 3000 to 10000 nM

SMILES: COc1ccc(C(=O)CCCCCC(=O)N[C@H](CNC2CCC2)[C@H](O)c2ccc3c(c2)OCCO3)cc1 [Compound 460]
- IC50: 1000 to 3000 nM

SMILES: CCC(C)NC[C@@H](NC(=O)CCCCCC(=O)c1ccc(OC)cc1)C(O)c1ccc2c(c1)OCCO2 (some centres unmarked) [Compound 461]
- IC50: 100 to 1000 nM

SMILES: COc1ccc(C(=O)CCCCCC(=O)N[C@H](CNC2CCCC2)[C@H](O)c2ccc3c(c2)OCCO3)cc1 [Compound 463]
- IC50: 100 to 1000 nM

SMILES: COc1ccc(C(=O)CCCCCC(=O)N[C@H](CN(CC2CC2)CC2CC2)[C@H](O)c2ccc3c(c2)OCCO3)cc1 [Compound 464]
- IC50: 3000 to 10000 nM

SMILES: COc1ccc(C(=O)CCCCCC(=O)N[C@H](CNC(C)C)C(O)c2ccc3c(c2)OCCO3)cc1 (some centres unmarked) [Compound 465]
- IC50: 100 to 1000 nM

SMILES: COc1ccc(C(=O)CCCCCC(=O)N[C@H](CNCC(C)(C)C)[C@H](O)c2ccc3c(c2)OCCO3)cc1 [Compound 466]
- IC50: 3000 to 10000 nM

SMILES: O=C(CCCOc1ccc(F)cc1)N[C@@H](CN1C2CCC1CC2)C(O)c1ccc2c(c1)OCCO2 (some centres unmarked) [Compound 472]
- IC50: 100 to 1000 nM

SMILES: O=C(CCOc1ccc(F)cc1)N[C@H](CN1C2CCC1CC2)[C@H](O)c1ccc2c(c1)OCCO2 [Compound 473]
- IC50: ≤ 100 nM

SMILES: O=C(CCCC(=O)c1ccc(F)cc1)N[C@H](CN1C2CCC1CC2)[C@H](O)c1ccc2c(c1)OCCO2 [Compound 474]
- IC50: 100 to 1000 nM

SMILES: O=C(CCCCCC(=O)c1ccc(F)cc1)N[C@H](CN1C2CCC1CC2)[C@H](O)c1ccc2c(c1)OCCO2 [Compound 475]
- IC50: ≤ 100 nM

SMILES: O=C(CCCCC(=O)c1ccc(F)cc1)N[C@H](CN1C2CCC1CC2)[C@H](O)c1ccc2c(c1)OCCO2 [Compound 476]
- IC50: 100 to 1000 nM

SMILES: COc1ccc(C(=O)CCCCCC(=O)N[C@@H](CO)C(O)c2ccc3c(c2)OCCO3)cc1 (some centres unmarked) [Compound 477]
- IC50: 3000 to 10000 nM

SMILES: CCCCCCCC(=O)N[C@H](CN1CCCC1)[C@H](O)c1ccc(CCOC)cc1 [Compound 478]
- IC50: 100 to 1000 nM

SMILES: COc1ccc(CCNC(=O)N[C@H](CN2CCCC2)[C@H](O)c2ccc3c(c2)OCCO3)cc1 [Compound 480]
- IC50: 1000 to 3000 nM

SMILES: O=C(CCCCCNC(=O)C(F)(F)F)N[C@H](CN1CCCC1)[C@H](O)c1ccc2c(c1)OCCO2 [Compound 481]
- IC50: 3000 to 10000 nM

SMILES: O=C(CCCCCN1Cc2ccccc2C1=O)N[C@H](CN1CCCC1)[C@H](O)c1ccc2c(c1)OCCO2 [Compound 486]
- IC50: 1000 to 3000 nM

SMILES: O=C(Cc1ccc(OC(F)(F)F)cc1)N[C@H](CN1CCCC1)[C@H](O)c1ccc(C(F)(F)F)cc1 [Compound 487]
- IC50: 3000 to 10000 nM

SMILES: CCCCCCCC(=O)N[C@H](CN1CCCC1)[C@H](O)c1ccc(C(F)(F)F)cc1 [Compound 488]
- IC50: 1000 to 3000 nM

SMILES: COc1ccc(OCCC(=O)N[C@H](CN2CCCC2)[C@H](O)c2ccc(C(F)(F)F)cc2)cc1 [Compound 489]
- IC50: 3000 to 10000 nM

SMILES: COc1ccc(C(=O)CCCC(=O)N[C@H](CN2CCCC2)[C@H](O)c2ccc(C(F)(F)F)cc2)cc1 [Compound 490]
- IC50: 3000 to 10000 nM

SMILES: COc1ccc(C(=O)CCCCC(=O)N[C@H](CN2CCCC2)[C@H](O)c2ccc(C(F)(F)F)cc2)cc1 [Compound 491]
- IC50: 1000 to 3000 nM

SMILES: O=C(Cc1ccc(OC(F)(F)F)cc1)NC(CN1CCCC1)[C@H](O)c1ccc(Cl)s1 (some centres unmarked) [Compound 492]
- IC50: 3000 to 10000 nM

SMILES: COc1ccc(OCCC(=O)N[C@H](CN2CCCC2)[C@H](O)c2ccc(Cl)s2)cc1 [Compound 493]
- IC50: 1000 to 3000 nM

SMILES: COc1ccc(C(=O)CCCCCC(=O)N[C@H](CN2CC[C@H](O)C2)[C@H](O)c2ccc(OCCCCF)cc2)cc1 [Compound 497]
- IC50: ≤ 100 nM

SMILES: COc1ccc(CNC(=O)N[C@H](CN2CC[C@H](O)C2)[C@H](O)c2ccc(OCCCCF)cc2)cc1 [Compound 498]
- IC50: ≤ 100 nM

SMILES: COCCCCCCCC(=O)N[C@H](CN1CC[C@H](O)C1)[C@H](O)c1ccc(OCCCCF)cc1 [Compound 499]
- IC50: ≤ 100 nM

SMILES: COc1ccc(OCCCC(=O)N[C@H](CN2CC[C@H](O)C2)[C@H](O)c2ccc(OCCCCF)cc2)cc1 [Compound 501]
- IC50: ≤ 100 nM

SMILES: COc1ccc(OCCC(=O)N[C@H](CN2CC[C@H](O)C2)[C@H](O)c2ccc(OCCCCF)cc2)cc1 [Compound 502]
- IC50: ≤ 100 nM

SMILES: O=C(NCc1ccc(Cl)cc1)N[C@H](CN1CC[C@H](O)C1)[C@H](O)c1ccc(OCCCCF)cc1 [Compound 503]
- IC50: ≤ 100 nM

SMILES: CCCCCCCC(=O)N[C@H](CN1CC[C@@H](F)C1)[C@H](O)c1ccc2c(c1)OCCO2 [Compound 504]
- IC50: 100 to 1000 nM

SMILES: COc1ccc(OCCC(=O)N[C@H](CN2CC[C@H](c3ccccc3)C2)[C@H](O)c2ccc3c(c2)OCCO3)cc1 [Compound 505]
- IC50: 3000 to 10000 nM

SMILES: CCCCCCCC(=O)N[C@H](CN1CC[C@H](c2ccccc2)C1)[C@H](O)c1ccc2c(c1)OCCO2 [Compound 506]
- IC50: 3000 to 10000 nM

SMILES: CCCCCCCC(=O)N[C@H](Cn1ccnc1)[C@H](O)c1ccc2c(c1)OCCO2 [Compound 507]
- IC50: 100 to 1000 nM

SMILES: COc1ccc(OCCC(=O)N[C@H](Cn2ccnc2)[C@H](O)c2ccc3c(c2)OCCO3)cc1 [Compound 508]
- IC50: 3000 to 10000 nM

SMILES: CCCCCCCC(=O)N[C@H](CN1CC[C@H](F)C1)[C@H](O)c1ccc2c(c1)OCCO2 [Compound 510]
- IC50: 3000 to 10000 nM

SMILES: COc1ccc(OCCC(=O)N[C@H](CN2CC[C@H](F)C2)[C@H](O)c2ccc3c(c2)OCCO3)cc1 [Compound 511]
- IC50: 3000 to 10000 nM

Second part, the compound after the results:

- IC50: ≤ 100 nM
SMILES: CC(C)Oc1ccc([C@@H](O)[C@@H](CN2CC[C@@H](F)C2)NC(=O)Cc2ccc(-c3ccc(Cl)cc3)cc2)cc1 [Compound 446]

- IC50: 100 to 1000 nM
SMILES: Cc1ccc(OCCC(=O)N[C@H](CN2CC[C@@H](F)C2)[C@H](O)c2ccc(OC(C)C)cc2)cc1 [Compound 448]

- IC50: ≤ 100 nM
SMILES: COCCOc1ccc(C(=O)CCCCC(=O)N[C@H](CN2CCCC2)[C@H](O)c2ccc3c(c2)OCCO3)cc1 [Compound 450]

- IC50: 100 to 1000 nM
SMILES: COCCOc1ccc(C(=O)CCCC(=O)N[C@H](CN2CCCC2)[C@H](O)c2ccc(OC(C)C)cc2)cc1 [Compound 451]

- IC50: ≤ 100 nM
SMILES: COCCOc1ccc(C(=O)CCCCC(=O)N[C@H](CN2CCCC2)[C@H](O)c2ccc(OC(C)C)cc2)cc1 [Compound 453]

- IC50: ≤ 100 nM
SMILES: COCCOc1ccc(C(=O)CCCCC(=O)N[C@H](CN2CC[C@H](O)C2)[C@H](O)c2ccc(OCCCCF)cc2)cc1 [Compound 455]

- IC50: ≤ 100 nM
SMILES: COCCOc1ccc(C(=O)CCCC(=O)N[C@H](CN2CC[C@H](O)C2)[C@H](O)c2ccc(OCCCCF)cc2)cc1 [Compound 457]

- IC50: 3000 to 10000 nM
SMILES: CCCCN(CCCC)C[C@@H](NC(=O)CCCCCC(=O)c1ccc(OC)cc1)C(O)c1ccc2c(c1)OCCO2 (some centres unmarked) [Compound 459]

- IC50: 1000 to 3000 nM
SMILES: CCCCNC[C@@H](NC(=O)CCCCCC(=O)c1ccc(OC)cc1)C(O)c1ccc2c(c1)OCCO2 (some centres unmarked) [Compound 462]

- IC50: 100 to 1000 nM
SMILES: CCCNC[C@@H](NC(=O)CCCCCC(=O)c1ccc(OC)cc1)C(O)c1ccc2c(c1)OCCO2 (some centres unmarked) [Compound 467]

- IC50: ≤ 100 nM
SMILES: COc1ccc(C(=O)CCCCCC(=O)N[C@@H](CN(C)C(C)C)[C@@H](O)c2ccc3c(c2)OCCO3)cc1 [Compound 468]

- IC50: 100 to 1000 nM
SMILES: COc1ccc(C(=O)CCCCCC(=O)N[C@@H](CN(C)C)[C@@H](O)c2ccc3c(c2)OCCO3)cc1 [Compound 469]

- IC50: 100 to 1000 nM
SMILES: CCCN(C)C[C@H](NC(=O)CCCCCC(=O)c1ccc(OC)cc1)[C@@H](O)c1ccc2c(c1)OCCO2 [Compound 470]

- IC50: 1000 to 3000 nM
SMILES: COc1ccc(C(=O)CCCCCC(=O)N[C@H](CN2CCCC2)C(O)C2CCCCC2)cc1 (some centres unmarked) [Compound 471]

- IC50: ≤ 100 nM
SMILES: COCCc1ccc([C@@H](O)[C@@H](CN2CCCC2)NC(=O)CCCCCC(=O)c2ccc(OC)cc2)cc1 [Compound 479]

- IC50: 3000 to 10000 nM
SMILES: COc1ccc([C@@H](O)[C@@H](CO)NC(=O)OCc2ccccc2)cc1F [Compound 482]

- IC50: 3000 to 10000 nM
SMILES: O=C(N[C@H](CO)[C@H](O)c1ccc(C(F)(F)F)cc1)OCc1ccccc1 [Compound 483]

- IC50: 1000 to 3000 nM
SMILES: COc1ccc(C(=O)CCCCCC(=O)N[C@H](CN2CCCC2)[C@H](O)c2ccc(C(F)(F)F)cc2)cc1 [Compound 484]

- IC50: 3000 to 10000 nM
SMILES: O=C(CCCN1Cc2ccccc2C1=O)N[C@H](CN1CCCC1)[C@H](O)c1ccc2c(c1)OCCO2 [Compound 485]

- IC50: 100 to 1000 nM
SMILES: COc1ccc(C(=O)CCCCC(=O)N[C@H](CN2CCCC2)[C@H](O)c2ccc(Cl)s2)cc1 [Compound 494]

- IC50: ≤ 100 nM
SMILES: COc1ccc(C(=O)CCCCC(=O)N[C@H](CN2CC[C@H](O)C2)[C@H](O)c2ccc(OCCCCF)cc2)cc1 [Compound 495]

- IC50: ≤ 100 nM
SMILES: Cc1ccc(OCCC(=O)N[C@H](CN2CC[C@H](O)C2)[C@H](O)c2ccc(OCCCCF)cc2)cc1 [Compound 496]

- IC50: ≤ 100 nM
SMILES: COc1ccc(C(=O)CCCC(=O)N[C@H](CN2CC[C@H](O)C2)[C@H](O)c2ccc(OCCCCF)cc2)cc1 [Compound 500]

- IC50: 100 to 1000 nM
SMILES: COc1ccc(OCCC(=O)N[C@H](CN2CC[C@@H](F)C2)[C@H](O)c2ccc3c(c2)OCCO3)cc1 [Compound 509]
